Assay [1] concerns T69S→SS/L210W/T215Y HIV-1 mutant RT. Description: Inhibition of second strand synthesis on variable DNA template, standard reaction solution versus reaction solution with ATP. It is filed as biochemical. To be noted: 4 pg/well RT, 19 hours. How it is done:
The procedure for production of recombinant HIV-1 RTs with AZT specific mutations were similar but the mutations were introduced into the RT-coding region from the HXB2-D isolate.
The DNA polymerase γ and Retro DNA polymerase reaction mixture was reinforced with 3.2 mM ATP and pH was adjusted to 7.1.
The duration of the polymerization reactions was 19 hours. The RT activities obtained were recalculated into % of the activity of the same RT incubated in absence of inhibitor.
Symbols: HIV-1 wild type RT in standard DNA polymerase reaction solution (◯). HIV-1 wild type RT in DNA polymerase reaction solution with ATP (●), T69S→SS/L210W/T215Y HIV-1 mutant RT in standard DNA polymerase reaction solution (⋄),
T69S→SS/L210W/T215Y HIV-1 mutant RT in DNA polymerase reaction solution with ATP(♦).

For assay [2], the target named is T1, recombinant HIV 1 RT wild type (Human immunodeficiency virus type 1 group M subtype B, UniProt P03366). Description: biochemical. Further details: The mutated and native forms of RT were isolated as previously described; made in house. To be noted: IC50 on template prA, RT type wt, first strand synthesis, 2 hours. The procedure: In short, poly(rA) covalently bound to the wells of a 96 well microtiter plate serves as template for the incorporation of 5-bromodeoxyuridine 5′-triphosphate (BrdUTP) during the reverse transcription step at 33° C. The amount of bromodeoxyuridine monophosphate (BrdUMP) incorporated into DNA, is detected with an alkaline phosphatase (Ap) conjugated anti-BrdU monoclonal antibody. An Ap substrate, 4-methylumbelliferyl phosphate, is finally used for fluorimetric detection.
(§1) The effects of three non-nucleoside inhibitors on indicated recombinant HIV 1 RT were determined according to “Protocol for determination of inhibition of second strand synthesis on variable DNA template” using DNA polymerase γ and Retro DNA polymerase base buffer and “Protocol for determination of inhibition of reverse transcription ” respectively.

Assay [3] concerns the target T1, recombinant HIV 1 RT wild type. Description: biochemical.
Description: The DNA-polymerase assay is based on a short primer with a specific sequence that is covalently bound to the wells of a 96 well microtiter plate. The reaction mixture contains a single stranded deoxynucleotide template with a part of the sequence complementary to the primer and the four deoxynucleoside triphosphates. Thymidine triphosphate is, however, replaced by 5-bromodeoxyuridine 5′-triphosphate (BrdUTP). The amount of bromodeoxyuridine monophosphate (BrdUMP) incorporated into DNA during the polymerase reaction, is detected with an alkaline phosphatase (Ap) conjugated anti-BrdU monoclonal antibody. An Ap substrate, 4-methylumbelliferyl phosphate, is used for fluorimetric product detection.
The inhibition studies were performed in a modified DNA polymerase assay. The drugs were serially diluted in five steps and 25 μl aliquots were transferred to each well in the microtiter plate, mixed with 100 μl DNA polymerase reaction mixture and the enzyme reaction was initiated by addition of 25 μl enzyme dilution. […] The polymerase reaction was allowed to proceed over-night (16-24 hours at 33° C.). Thereafter the reaction was terminated by a wash of the plate.
The polymerase activity at each inhibitor concentration was recalculated into % of the activity of a control in absence of inhibitor. The results are depicted in FIG. 3.
as §1

The target in assay [4] is T2, recombinant DNA polymerase III (Staphylococcus aureus, UniProt P0C1P9).
T2 construct: made in house
T2 sequence (P0C1P9 1-1435): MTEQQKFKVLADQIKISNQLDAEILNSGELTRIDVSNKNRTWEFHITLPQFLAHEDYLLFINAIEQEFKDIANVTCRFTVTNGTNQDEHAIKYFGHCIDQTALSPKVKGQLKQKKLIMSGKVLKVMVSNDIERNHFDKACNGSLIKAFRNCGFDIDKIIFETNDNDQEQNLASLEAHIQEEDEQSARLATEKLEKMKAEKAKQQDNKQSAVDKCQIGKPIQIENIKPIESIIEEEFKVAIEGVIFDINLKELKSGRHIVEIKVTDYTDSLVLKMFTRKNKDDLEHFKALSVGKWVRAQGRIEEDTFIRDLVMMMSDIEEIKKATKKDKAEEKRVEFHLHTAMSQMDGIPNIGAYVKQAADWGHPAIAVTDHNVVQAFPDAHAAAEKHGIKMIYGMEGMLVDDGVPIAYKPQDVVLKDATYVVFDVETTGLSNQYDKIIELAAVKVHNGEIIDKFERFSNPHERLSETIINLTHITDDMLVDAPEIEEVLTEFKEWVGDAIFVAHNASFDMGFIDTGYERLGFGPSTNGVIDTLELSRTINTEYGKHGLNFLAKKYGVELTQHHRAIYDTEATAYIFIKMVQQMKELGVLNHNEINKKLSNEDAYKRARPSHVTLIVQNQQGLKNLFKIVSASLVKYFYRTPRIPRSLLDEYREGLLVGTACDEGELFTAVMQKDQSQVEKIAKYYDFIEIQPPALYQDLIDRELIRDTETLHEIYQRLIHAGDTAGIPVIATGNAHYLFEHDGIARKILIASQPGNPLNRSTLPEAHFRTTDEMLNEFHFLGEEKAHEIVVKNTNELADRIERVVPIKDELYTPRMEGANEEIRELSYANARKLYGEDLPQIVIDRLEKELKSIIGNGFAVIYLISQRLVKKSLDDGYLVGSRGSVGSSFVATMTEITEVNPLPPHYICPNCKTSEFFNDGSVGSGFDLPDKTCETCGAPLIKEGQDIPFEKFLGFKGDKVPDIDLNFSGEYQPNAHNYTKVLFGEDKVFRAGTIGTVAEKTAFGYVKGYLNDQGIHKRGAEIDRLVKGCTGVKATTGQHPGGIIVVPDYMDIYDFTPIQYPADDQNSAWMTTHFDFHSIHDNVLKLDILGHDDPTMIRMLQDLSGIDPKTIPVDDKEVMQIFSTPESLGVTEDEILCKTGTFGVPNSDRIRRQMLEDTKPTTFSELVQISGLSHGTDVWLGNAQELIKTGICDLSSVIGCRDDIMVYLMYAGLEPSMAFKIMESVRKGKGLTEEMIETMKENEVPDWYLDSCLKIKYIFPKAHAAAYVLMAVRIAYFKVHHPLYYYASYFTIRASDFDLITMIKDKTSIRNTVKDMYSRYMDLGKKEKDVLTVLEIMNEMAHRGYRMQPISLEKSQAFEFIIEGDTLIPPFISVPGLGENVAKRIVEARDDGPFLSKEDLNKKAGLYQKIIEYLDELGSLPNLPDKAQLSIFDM
The experiment in a line: Inhibition of DNA polymerase III with TMAU on different templates. It is filed as biochemical. To be noted: templates (CTGA)6-A12 or (CTG)6-A3; 1.25 ng/well enzyme, one hour, GTP […]. The procedure: DNA polymerase I (E. coli) was purchased from Amersham Bioscience. Recombinant DNA polymerase III from Staphylococus aureus was produced as described (Brown et al 1998). Mammalian DNA polymerase α (calf thymus) and β (human) were purchased from CHIMERx (Milwaukee). DNA polymerase γ was purified from beef heart as described (Pileur et al 2000).
(2-(N-Morpholino)ethanesulfonic acid) (MES) 40 mM pH 6.8, Potassium acetate (KAc) 40 mM, MgCl2 10 mM, spermine 2 mM, polyoxyethylenesorbitan monolaureate (Tween 20) 0.5%(v/v), EDTA 0.1 mM, dithiothreitol 1 mM and bovine serum albumin (BSA) 50 μg/ml.
6-anilinouracils are selective inhibitors of DNA polymerase III from gram-positive bacteria. […] The drug TMAU can be regarded as an analogue to […]. […]

Where two headings read alike, the source gives them in different places.

Regarding `C[C@@H](Cn1cnc2c(N)ncnc21)OCP(=O)(O)OP(=O)(O)OP(=O)(O)O`, the “Increase of the difference in drug susceptibility between wild type and mutant RT” value in assay [1] was “approximately 10 fold”.

For `O=C(O)P(=O)(O)O` [Foscarnet], the IC50 was determined as 600 nM in assay [2] (RT amount 20 fg), 700 nM in assay [2] (RT amount 100 fg) and 500 nM in assay [3].

For `O=c1cc(Nc2ccc3c(c2)CCC3)[nH]c(=O)[nH]1` [TMAU, 6-([3,4-trimethylene]anilino)uracil], the “Inhibitory capacity towards DNA polymerase III” value in assay [4] is on record as “varying inhibitory capacity depending on the sequence of the template used”.

On to `Nc1ncnc2c1ncn2C1CCC(COP(=O)(O)OP(=O)(O)OP(=O)(O)O)O1` (stereo not shown) [ddATP, 2′3′ dideoxyadenosine triphosphate], for which, in assay [3], the IC50 was 80 nM.

Take `Nc1ccn(C2CCC(COP(=O)(O)OP(=O)(O)OP(=O)(O)O)O2)c(=O)n1` (stereo not shown) [ddCTP, 2′3′ dideoxy cytidine triphosphate]: in assay [3], the IC50 is 20 nM.

The values are drawn from patent publication US7488577B2, “Method for measuring DNA polymerization and applications of the method” (Cavidi Tech AB, priority 2001, dated 2009).
